We go through one cell line from the supplement of paper PMC10307832.

Assay in all cases: relative viability (nuclei count vs DMSO), 5 days (fraction); higher = more cells survive
Compound in the test “IPA-3 + Luminespib”: C1=CC=C2C(=C1)C=CC(=C2SSC3=C(C=CC4=CC=CC=C43)O)O [IPA-3] + CCNC(=O)c1noc(-c2cc(C(C)C)c(O)cc2O)c1-c1ccc(CN2CCOCC2)cc1 [Luminespib] (partner 0.01 µM)
Summed up: (§1)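 Lung cancer cell lines in 1536-well plates were dosed by pin tool the day after seeding, either with one drug alone or with a fixed anchor-drug dose plus five library-drug doses (not always all listed) in √10 steps. After 5 days, cells were fixed and their nuclei stained in one step (final 0.05% Triton X-100, 1% formaldehyde, 1 ug/ml Hoechst), then counted on 4× images. Relative viability is the nuclei count in treated wells divided by that in vehicle wells. Values are medians of duplicate plates.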

Compound in the test “IPA-3 + Dasatinib”: C1=CC=C2C(=C1)C=CC(=C2SSC3=C(C=CC4=CC=CC=C43)O)O [IPA-3] + Cc1nc(Nc2ncc(C(=O)Nc3c(C)cccc3Cl)s2)cc(N2CCN(CCO)CC2)n1 [Dasatinib] (partner 0.075 µM)
Summed up:
as §1

Compound in the test “Doramapimod + Navitoclax”: Cc1ccc(-n2nc(C(C)(C)C)cc2NC(=O)Nc2ccc(OCCN3CCOCC3)c3ccccc23)cc1 [Doramapimod] + CC1(C)CCC(c2ccc(Cl)cc2)=C(CN2CCN(c3ccc(C(=O)NS(=O)(=O)c4ccc(N[C@H](CCN5CCOCC5)CSc5ccccc5)c(S(=O)(=O)C(F)(F)F)c4)cc3)CC2)C1 [Navitoclax] (partner 0.5 µM)
Summed up: as §1

Compound in the test “Doramapimod + Alpelisib”: Cc1ccc(-n2nc(C(C)(C)C)cc2NC(=O)Nc2ccc(OCCN3CCOCC3)c3ccccc23)cc1 [Doramapimod] + Cc1nc(NC(=O)N2CCC[C@H]2C(N)=O)sc1-c1ccnc(C(C)(C)C(F)(F)F)c1 [Alpelisib] (partner 2 µM)
Summed up:
as §1

Consider UMC-11, for which the relative viability with IPA-3 + Luminespib (first compound 0.2 µM) was found to be 1.12; with IPA-3 + Luminespib (first compound 0.6325 µM), 0.94; in the test with IPA-3 + Luminespib (first compound 2 µM), 1.05; with IPA-3 + Luminespib (first compound 6.325 µM), 1.06; with IPA-3 + Luminespib (first compound 20 µM), 1.53; with IPA-3 + Dasatinib (first compound 0.2 µM), 0.605. Moreover, the relative viability with IPA-3 + Dasatinib (first compound 0.6325 µM) is 0.421; with IPA-3 + Dasatinib (first compound 2 µM) it was 0.483; with IPA-3 + Dasatinib (first compound 6.325 µM) it was 0.446; with IPA-3 + Dasatinib (first compound 20 µM), 0.489; with Doramapimod + Navitoclax (first compound 0.02 µM) it was 0.304; with Doramapimod + Navitoclax (first compound 0.06325 µM) it was 0.275. The relative viability with Doramapimod + Navitoclax (first compound 0.2 µM) is 0.323; with Doramapimod + Navitoclax (first compound 0.6325 µM) it was 0.344; in the test with Doramapimod + Navitoclax (first compound 2 µM), 0.271; with Doramapimod + Alpelisib (first compound 0.02 µM), 1; with Doramapimod + Alpelisib (first compound 0.06325 µM) it was 1.03; with Doramapimod + Alpelisib (first compound 0.2 µM) it was 0.891. Also, the relative viability in the test with Doramapimod + Alpelisib (first compound 0.6325 µM) is 0.989; with Doramapimod + Alpelisib (first compound 2 µM), 0.876.
